Holding throughout (format): biochemical
One assay addresses T1, cathepsin K (Homo sapiens, UniProt P43235).
T1 sequence (P43235 115-329): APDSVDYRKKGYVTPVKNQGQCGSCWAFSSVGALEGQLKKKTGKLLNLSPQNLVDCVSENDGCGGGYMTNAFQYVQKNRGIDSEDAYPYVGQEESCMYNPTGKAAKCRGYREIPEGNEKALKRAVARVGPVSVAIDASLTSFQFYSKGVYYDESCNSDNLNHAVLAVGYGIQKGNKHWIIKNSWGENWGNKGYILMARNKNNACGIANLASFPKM
As to the kind of experiment: Inhibitory activity assay against cathepsin K (enzyme assay). The conditions noted are these: Z-Phe-Arg-AMC 10 μM, enzyme 1 nM, pH 5.5, 30 minutes. In a few lines: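 IC50 by 4-parameter logistic fit of fluorescence (ex 355 nm, em 460 nm) after 30 min reaction. Compound tested at 10 final concentrations from 10.0 μM down to 0.000508 μM against 1 nM enzyme and 10 μM Z-Phe-Arg-AMC, in MES buffer pH 5.5 with DTT, EDTA, Triton X-100 and 10% DMSO.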

Another assay concerns the target cathepsin S (Homo sapiens, UniProt P25774). As to the kind of experiment: Inhibitory activity assay against cathepsin S (enzyme assay). The note with it: Z-Phe-Arg-AMC 70 μM, enzyme 3 nM, pH 6.5, 45 minutes. Put shortly: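 Ten-point compound titration (10.0 to 0.000508 μM final) reacted 45 min with 3 nM cathepsin S and 70 μM Z-Phe-Arg-AMC in MES 50 mM pH 6.5, DTT 2.5 mM, EDTA 1.0 mM, BSA 0.001%, DMSO 10%. AMC release read at 340/460 nm; IC50 from four-parameter logistic fit.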

A further assay deals with cathepsin B (Homo sapiens, UniProt P07858). As to the kind of experiment: Inhibitory activity assay against cathepsin B (enzyme assay). The note with it: Z-Arg-Arg-AMC 40 μM, enzyme 1 nM, pH 6.0, 90 minutes. Put shortly:
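Reaction run 90 min in MES buffer pH 6.0 containing DTT, EDTA, Polysorbate 20 and 10% DMSO, using 40 μM fluorogenic Z-Arg-Arg-AMC and 1 nM cathepsin B. Ten compound levels from 10.0 μM; AMC fluorescence at ex 340/em 460 nm fitted to a 4-parameter logistic for IC50.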

For another assay, the target named is cathepsin L (Homo sapiens, UniProt P07711). As to the kind of experiment: Inhibitory activity assay against cathepsin L (enzyme assay). The note with it: Z-Phe-Arg-AMC 2 μM, enzyme 3 nM, pH 5.5, 30 minutes. In a few lines:
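IC50s came from 4-parameter logistic fits of ten concentrations (10.0 μM down to 0.000508 μM). Reaction: 30 min, 3 nM enzyme, 2 μM Z-Phe-Arg-AMC, pH 5.5 MES buffer containing DTT, EDTA, Polysorbate 20 and 10% DMSO; fluorescence read 340/460 nm.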

The structures appear in SMILES notation.

cathepsin L, sequence (P07711 114-333, species assumed): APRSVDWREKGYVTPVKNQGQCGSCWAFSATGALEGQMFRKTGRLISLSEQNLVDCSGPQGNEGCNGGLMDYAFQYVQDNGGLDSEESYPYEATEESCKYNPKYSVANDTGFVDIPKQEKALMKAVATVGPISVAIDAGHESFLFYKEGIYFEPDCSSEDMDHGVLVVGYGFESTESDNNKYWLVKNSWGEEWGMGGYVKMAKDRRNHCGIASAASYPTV
cathepsin S, sequence (P25774 115-331, species assumed): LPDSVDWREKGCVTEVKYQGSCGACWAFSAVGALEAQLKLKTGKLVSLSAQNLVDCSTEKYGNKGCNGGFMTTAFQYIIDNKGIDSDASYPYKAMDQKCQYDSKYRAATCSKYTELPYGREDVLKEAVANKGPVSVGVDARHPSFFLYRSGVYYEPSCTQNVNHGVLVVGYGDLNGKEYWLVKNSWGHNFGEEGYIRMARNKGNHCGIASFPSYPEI

Take `CC(=O)N1CCN(c2ccc(-c3ccc(NC(=O)NC4(c5ccnc(C#N)n5)CCCCC4)cc3)cc2)CC1` [Example 155, 1-(4′(4-acetylpiperazin-1-yl)-[1,1′-biphenyl]-4-yl)-3-(1-(2-cyanopyrimidin-4-yl)cyclohexyl)urea]: the half-inhibitory concentration (IC50) – broadly, the concentration needed to halve the response being measured – is 2 nM at cathepsin K, greater than 10000 nM against cathepsin S, 7340 nM at cathepsin B and greater than 10000 nM against cathepsin L.
Consider `COC(=O)Cc1ccc(-c2ccc(NC(=O)NC3(c4ccnc(C#N)n4)CCCCC3)cc2)cc1` [Example 156, methyl 2-(4′-(3-(1-(2-cyanopyrimidin-4-yl)cyclohexyl)ureido)-[1,1′-biphenyl]-4-yl)acetate], for which the IC50 at cathepsin K was 4.3 nM; against cathepsin S, greater than 10000 nM; against cathepsin B, greater than 10000 nM; on cathepsin L, greater than 10000 nM.
Consider `COCCOCc1ccc(-c2ccc(NC(=O)NC3(c4ccnc(C#N)n4)CCCCC3)cc2)cc1` [Example 157, 1-(1-(2-cyanopyrimidin-4-yl)cyclohexyl)-3-(4′-((2-methoxyethoxy)methyl)-[1,1′-biphenyl]-4-yl)urea], for which the IC50 on cathepsin K was 6.4 nM; against cathepsin S, 4620 nM; on cathepsin B it was greater than 10000 nM; against cathepsin L, greater than 10000 nM.
With `N#Cc1nccc(C2(NC(=O)Nc3ccc(-c4ccc(C(=O)NCC5CCCO5)cc4)cc3)CCCCC2)n1` (centres unmarked) [Example 158, 4′-(3-(1-(2-cyanopyrimidin-4-yl)cyclohexyl)ureido)-N-((tetrahydrofuran-2-yl)methyl)-[1,1′-biphenyl]-4-carboxamide], the IC50 on cathepsin K is 6.6 nM; on cathepsin S it was 9430 nM; at cathepsin B, 5650 nM; against cathepsin L it was greater than 10000 nM.
For `CN(C)CCNC(=O)c1ccc(-c2ccc(NC(=O)NC3(c4ccnc(C#N)n4)CCCCC3)cc2)cc1` [Example 159, 4′-(3-(1-(2-cyanopyrimidin-4-yl)cyclohexyl)ureido)-N-(2-(dimethylamino)ethyl)-[1,1′-biphenyl]-4-carboxamide] the same measures were 0.6 nM, greater than 10000 nM, 1890 nM and 4090 nM.
For `CCN1CCN(c2ccc(-c3ccc(NC(=O)NC4(c5ccnc(C#N)n5)CCCCC4)cc3)cc2)CC1` [Example 160, 1-(1-(2-cyanopyrimidin-4-yl)cyclohexyl)-3-(4′-(4-ethylpiperazin-1-yl)-[1,1′-biphenyl]-4-yl)urea], the 50% inhibitory concentration (IC50) is 0.1 nM at cathepsin K, greater than 10000 nM on cathepsin S, 1840 nM against cathepsin B and 8810 nM against cathepsin L.
Regarding `N#Cc1nccc(C2(NC(=O)Nc3ccc(-c4ccc(CC(=O)O)cc4)cc3)CCCCC2)n1` [Example 161, 2-(4′-(3-(1-(2-cyanopyrimidin-4-yl)cyclohexyl)ureido)-[1,1′-biphenyl]-4-yl)acetic acid], the IC50 at cathepsin K was 61.1 nM; at cathepsin S, greater than 10000 nM; against cathepsin B, greater than 10000 nM; on cathepsin L it was greater than 10000 nM.
Regarding `CS(=O)(=O)c1ccc(-c2ccc(NC(=O)NC3(c4ccnc(C#N)n4)CCCCC3)cc2C(F)(F)F)cc1` [Example 162, 1-(1-(2-cyanopyrimidin-4-yl)cyclohexyl)-3-(4′-(methylsulfonyl)-2-(trifluoromethyl)-[1,1′-biphenyl]-4-yl)urea], the IC50 at cathepsin K was 8.3 nM; on cathepsin S, 3950 nM; against cathepsin B, greater than 10000 nM; against cathepsin L, 6520 nM.
For `N#Cc1nccc(C2(NC(=O)Nc3ccc(-c4ccc(C(=O)O)cc4)c(C(F)(F)F)c3)CCCCC2)n1` [Example 163, 4′-(3-(1-(2-cyanopyrimidin-4-yl)cyclohexyl)ureido)-2′-(trifluoromethyl)-[1,1′-biphenyl]-4-carboxylic acid] the same measures were 25.2 nM, 3370 nM, greater than 10000 nM and greater than 10000 nM.
Taken in the same sequence, the figures for `CC(=O)Nc1ccc(-c2ccc(NC(=O)NC3(c4ccnc(C#N)n4)CCCCC3)cc2F)cc1` [Example 164, N-(4′-(3-(1-(2-cyanopyrimidin-4-yl)cyclohexyl)ureido)-2′-fluoro-[1,1′-biphenyl]-4-yl)acetamide] were 6.2 nM, 4640 nM, greater than 10000 nM and greater than 10000 nM.
Taken in the same sequence, the figures for `CC(=O)NCc1ccc(-c2ccc(NC(=O)NC3(c4ccnc(C#N)n4)CCCCC3)cc2F)cc1` [Example 165, N-((4′-(3-(1-(2-cyanopyrimidin-4-yl)cyclohexyl)ureido)-2′-fluoro-[1,1′-biphenyl]-4-yl)methyl)acetamide] were 5.7 nM, greater than 10000 nM, greater than 10000 nM and greater than 10000 nM.
With `CC(C)N1CCN(c2ccc(-c3ccc(NC(=O)NC4(c5ccnc(C#N)n5)CCCCC4)cc3F)cc2)CC1` [Example 166, 1-(1-(2-cyanopyrimidin-4-yl)cyclohexyl)-3-(2-fluoro-4′-(4-isopropylpiperazin-1-yl)-[1,1′-biphenyl]-4-yl)urea], the IC50 came out at 0.4 nM on cathepsin K, 5940 nM at cathepsin S, 2410 nM on cathepsin B and 3440 nM against cathepsin L.
Taken in the same sequence, the figures for `CS(=O)(=O)c1ccc(-c2ccc(NC(=O)NC3(c4ccnc(C#N)n4)CCCCC3)cc2F)cc1` [Example 167, 1-(1-(2-cyanopyrimidin-4-yl)cyclohexyl)-3-(2-fluoro-4′-(methylsulfonyl)-[1,1′-biphenyl]-4-yl)urea] were 8 nM, 1110 nM, greater than 10000 nM and greater than 10000 nM.
For `N#Cc1nccc(C2(NC(=O)Nc3ccc(-c4ccc(C5CCN(C6CC6)CC5)cc4)c(F)c3)CCCCC2)n1` [Example 168, 1-(1-(2-cyanopyrimidin-4-yl)cyclohexyl)-3-(4′-(1-cyclopropylpiperidin-4-yl)-2-fluoro-[1,1′-biphenyl]-4-yl)urea] the same measures were 0.3 nM, greater than 10000 nM, greater than 10000 nM and greater than 10000 nM.
Taken in the same sequence, the figures for `N#Cc1nccc(C2(NC(=O)Nc3ccc(-c4ccc(S(=O)(=O)C(F)(F)F)cc4)cc3)CCCCC2)n1` [Example 169, 1-(1-(2-cyanopyrimidin-4-yl)cyclohexyl)-3-(4′-((trifluoromethyl)sulfonyl)-[1,1′-biphenyl]-4-yl)urea] were 74 nM, 3600 nM, greater than 10000 nM and greater than 10000 nM.
Turning to `CS(=O)(=O)c1ccc(-c2ccc(NC(=O)NC3(c4ccnc(C#N)n4)CCCCC3)cc2)cc1F` [Example 170, 1-(1-(2-cyanopyrimidin-4-yl)cyclohexyl)-3-(3′-fluoro-4′-(methylsulfonyl)-[1,1′-biphenyl]-4-yl)urea], the IC50 on cathepsin K is 39.5 nM; on cathepsin S it was greater than 10000 nM; on cathepsin B it was greater than 10000 nM; against cathepsin L, greater than 10000 nM.
On to `CS(=O)(=O)c1ccc(-c2ccc(NC(=O)NC3(c4ccnc(C#N)n4)CCCCC3)cc2)cc1C(F)(F)F` [Example 171, 1-(1-(2-cyanopyrimidin-4-yl)cyclohexyl)-3-(4′-(methylsulfonyl)-3′-(trifluoromethyl)-[1,1′-biphenyl]-4-yl)urea], for which the IC50 is 24 nM at cathepsin K, 2190 nM against cathepsin S, greater than 10000 nM at cathepsin B and greater than 10000 nM on cathepsin L.
With `N#Cc1nccc(C2(NC(=O)Nc3ccc(-c4ccccc4C(F)(F)F)cc3)CCCCC2)n1` [Example 172, 1-(1-(2-cyanopyrimidin-4-yl)cyclohexyl)-3-(2′-(trifluoromethyl)-[1,1′-biphenyl]-4-yl)urea], the IC50 is 108 nM at cathepsin K, 8020 nM against cathepsin S, greater than 10000 nM on cathepsin B and greater than 10000 nM against cathepsin L.
In the case of `N#Cc1nccc(C2(NC(=O)Nc3ccc(-c4ccc(S(N)(=O)=O)cc4)cc3)CCCCC2)n1` [Example 173, 4′-(3-(1-(2-cyanopyrimidin-4-yl)cyclohexyl)ureido)-[1,1′-biphenyl]-4-sulfonamide], the IC50 was 13.8 nM on cathepsin K, greater than 10000 nM against cathepsin S, greater than 10000 nM against cathepsin B and greater than 10000 nM against cathepsin L.
As to `CS(=O)(=O)Nc1ccc(-c2ccc(NC(=O)NC3(c4ccnc(C#N)n4)CCCCC3)cc2)cc1` [Example 174, N-(4′-(3-(1-(2-cyanopyrimidin-4-yl)cyclohexyl)ureido)-[1,1′-biphenyl]-4-yl)methanesulfonamide], the IC50 at cathepsin K is 11.7 nM; against cathepsin S it was greater than 10000 nM; at cathepsin B, greater than 10000 nM; against cathepsin L, greater than 10000 nM.

The values above are taken from US11299478B2, “2-cyanopyrimidin-4-yl carbamate or urea derivative or salt thereof, and pharmaceutical composition including same” (HANLIM PHARMACEUTICAL CO., LTD., priority 2018, dated 2022).
